Results as given in patent publication US6905834B1, “Bioluminescent bioreporter integrated circuit detection methods” (UT-Battelle, LLC, priority 1997, dated 2005).
Where two headings read alike, the source gives them in different places.

Assays:
P. putida B2 [1] = test: Immobilized cell reactor (DVR) with alginate-encapsulated P. putida B2: bioluminescence and TCE co-metabolism; assay type: cell-based, Pseudomonas putida
Method: (§1) In the batch and reactor studies, bioluminescence was measured using a photomultiplier, which converts the light to an electric current. The photomultiplier in the resting cell assays and the reactor system was connected to a computer and bioluminescence as namps current was recorded.
P. putida B2 was encapsulated in alginate beads for the immobilized cell reactor system. Cells were grown in 1 L LB to an OD546 of 1.2 and were centrifuged at 5500×g for 10 min, washed three times in 0.9% NaCl and suspended in 40 ml 0.9% NaCl. The cell suspension was added to 80 ml of an alginic acid solution (28 g L^−1 low viscosity alginate, 0.9% NaCl) (Webb, 1992). The cell-alginate suspension was placed in a 60-ml syringe, forced through a 25-gauge needle, and allowed to drop into a 0.5 M CaCl2 Solution. The alginate was cross-linked by the Ca^2+ ions, thus encapsulating the cells. The cells were subsequently placed in a fresh solution of 0.1 M CaCl2 and allowed to sit for 30 min prior to use.
A differential volume reactor (DVR) was used to simulate a section of an ideal plug flow reactor. Influent to the reactor was dispersed through a porous metal frit to provide a flat velocity profile to the bed. The reactor measured 5.0 cm i.d.×5.0 cm long. A complete description of this reactor can be found in Webb et al. (1991). In this investigation, a system was designed incorporating the DVR as illustrated in FIG. 17. The system was equipped with three Millipore (Bedford, Mass.) stainless steel substrate containers rated to 690 kPa. The feed from the substrate vessels to the reactor inlet was controlled by two Filson (Middleton, Wis.) 301 HPLC pumps. A flow rate of 0.4 ml min^−1 was maintained. The substrate vessels were pressurized with oxygen to provide the system with an electron acceptor. All medium vessels contained trace mineral medium (Lackey et al., 1993) with the addition of 3 mg L^−1 pyruvic acid and a 0.1 M solution of Tris-base (pH 7.0). phosphate buffers were not used since phosphate ions complex with Ca^2+ ions and disrupt with alginate crosslinking. In addition to this medium, two of the vessels contained either TCE or toluene. The inlet concentration of toluene was altered by using square-wave perturbations with 20-h cycles (10 h with toluene, 10 h without toluene) using an HPLC pump controlled by a timer. During feed portions of the cycle, 10 mg L^−1 toluene was introduced into the inlet of the reactor. The inlet TCE concentration was constant at 20 mg L^−1.
Analysis of TCE in the reactor effluent was performed online using a stripping column (12.5 cm length and 0.4 cm inner diameter) packed with 3-mm glass beads to provide adequate surface area for TCE separation. TCE was stripped with helium, the GC carrier gas. The stripping column outlet was attached to a gas chromatograph (GC, Hewlett Packard (Wilmington, Del.) (HP) 5890 Series II) with an electron capture detector by a heated sample line maintained at 75° C. Automatic injections (25 μl) were made by a computerized control process (HP Chem Station software). The GC was equipped with a cross-linked methyl silicone capillary column (length 30 n, i.d 0.2 mm, 0.33-μm film thickness) while the oven was operated isothermally at 60° C. Other operating parameters included an injection temperature of 150° C., detector temperature of 200° C. and a split ratio of 10:1. This system was equipped with a bypass line around the reactor in order to calibrate the stripping column.
Toluene samples were removed at 0.5-ml aliquots from the effluent sampling port (FIG. 17) and injected into 1.5 ml sample vials. Headspace analysis was performed using a Shimadzu (Columbia, Md.) GC-9A gas chromatograph equipped with a 2.44-m, 3.2-mm diameter Poropak N packed column and a flame ionization detector. The isothermal temperature of the oven was 210° C., and both the detector and injector temperatures were 220° C.

P. putida TVA8 = assay type: cell-based, Pseudomonas putida
P. putida B2 [2] = test: Resting cell assays of P. putida B2, single and multiple toluene exposures; assay type: cell-based, Pseudomonas putida; conditions: 10 mg/L toluene; for Bioluminescent response rate, Multiple Exposure Vial: single vial with multiple additions; for Bioluminescent response rate, Single Exposure Vials: new vial previously unexposed
Method: as §1
Cells for resting cell assays were grown on MSM supplemented with 2.7 g L^−1 succinate. A culture of P. putida B2 was harvested at on OD546 of approximately 0.8. The cells were centrifuged at 15000×g for 10 min, and resuspended in MSM to OD546 of 0.6 four milliliters of culture were added to each of six 26-ml vials with Mininert valves (Dynatech, Chantilly, Va.) with stir bars. One vial was used for multiple toluene exposures, while the remainder were used for single exposures. The vials were magnetically stirred in a light-tight sampling cell. Toluene-saturated MSM and MSM alone were added to yield an OD546 of 0.47, and 10 mg L^−1 toluene was injected six times over a 130-h period of the multiple-exposure vial. At the same time points, a single-exposure vial was injected with 10 mg L^−1 toluene. The light response was recorded every 3 min with a photomultiplier connected to a data acquisition computer.

P. putida B2 [3] = test: Assays of growing cells of tod-lux reporter P. putida B2; assay type: cell-based, Pseudomonas putida; conditions: for bioluminescent response: 90 minutes exposure
Method: as §1
Assays of growing cells were conducted as described by Heitzer et al. (1992). An overnight culture from a frozen stock of P. putida B2 was prepared in a 250-ml Erlenmeyer flask containing 100 ml LB and 50 μg ml^−1 kanamycin. A subculture was prepared and cells were used in mid-log phase (OD546 of 0.45-0.48). A 2.5-ml aliquot was added to 2.5 ml mineral salts medium (MSM) containing 0-50 mg L^−1 toluene or 10-100 μl of JP4 jet fuel-saturated MSM. The concentration of toluene in water saturated with JP4 jet fuel is approximately 8 mg L^−1 (Smith et al., 1981). Bioluminescence was measured every 30 min.

P. fluorescens HK44 = assay type: cell-based, Pseudomonas fluorescens
Text: A previously developed PBR system with on-line instrumentation (Webb, 1992; Webb et al., 1991) was used to measure bacterial degradative and bioluminescent activity under conditions mimicking those of the subsurface. The reactor design is detailed in FIG. 21. The PBR was temperature controlled and fitted with metal frits welded to the inlet and outlet to retain and distribute feed to immobilized cultures. An additional inter-cavity insert allowed the installation of filters (e.g., […] inorganic and polymeric) between the packed bed and outlet frit that filtered the effluent for automatic injection into the on-line high-performance liquid chromatography (HPLC) and that produced a uniform resistance to flow that improved the overall distribution to the reactor (Webb, 1992). […] HPLC pumps supplied media to each reactor from pressurized feed reservoirs. All nutrients, including oxygen, entered the reactor dissolved in the liquid phase. Naphthalene and salicylate were detected with an on-line HPLC using a Vydac TP20154 column (Sep/A/Ra/Tions Group, Hesperia, Calif.) with a FL-4 dual-monochromator fluorescent detector (Perkin-Elmer, Norwalk, Conn.). Respective excitation and emission wavelengths for salicylate detection were 290 and 360 nm. The reactor was fitted with an on-line light detector for monitoring bioluminescent activity (Dunbar, 1992) consisting of a glued fiber bundle (Ensign Bickford Optics, Simsbury, Conn.) placed approximately 2.5 cm from the entrance of the reactor. An Oriel Inc. (Stratford, Conn.) 7070 photomultiplier detection system using a Model 77348 photomultiplier tube (radiant sensitivity of […] near 500 nm) were employed.
Mineral salts media (pH 7.2) consisting of MgSO4 7H2O ([…]), NH4NO3 ([…]), trizma™ base ([…]), MgO (1.0×10^−3 g/l), CaCl2 (2.9×10^−4 g/l), FeCl3.6H2O (5.4×10^−4 g/l), ZnSO4.7H2O (1.4×10^−4 g/l), CuSO4 (2.5×10^−5 g/l), […] (6.2×10^−6 g/l), and Na2MoO4.H2O (4.9×10^−5 g/l) were supplied to the reactor with an appropriate carbon source for degradation and bioluminescence studies. Kinetic bacterial studies were phosphate limited and maintained aerobic by con-trolled pressurization of feeds and the reactor.
The HK44 was prepared for immobilization by adding freshly thawed inoculum (frozen at −70° C. until use) to 100 mL of YEPG media which contained glucose (1.0 g/l), polypeptone (2.0 g/l), yeast extract (0.2 g/l), NH4NO3 (0.2 g/l), and tetracycline (14 mg/l). The culture was shaken for 15 hours at 25° C. and then centrifuged at 8000 rpm for 10 minutes. The pellet was then washed with 0.9% NaCl solution three times before immobilization. The concentration of HK44 was enumerated by measuring optical density at 546 nm. The HK44 was immobilized by suspending bacteria in 0.9% NaCl solution and mixing with a low-viscosity alginate (28 g/L) and NaCl (9 g/L) solution in a ratio of 1:2 by volume. Beads were formed by controlled dropwise addition to 0.1 M CaCl2 solution by a syringe needle installed in an air jet controlled by a precision regulator (Porter Instrument Co., Hatfield, Pa.) and a piece of 0.003-in. (i.d.) tubing. Beads diameters were measured using gentle wet sieving. Alginate beads were dissolved in 50 mM sodium hexametaphosphate. […]

[4] = Adsorption isotherms on calcium alginate; assay type: physicochemical
Method: Tracer concentrations were measured using a Waters ion-chromatography system with a series 510 HPLC pump, IC-PAK anion exchange column, and 431 conductance detector (Waters, Cam-bridge, MA) or monitored continuously using fluorescence.

HK44 cells = conditions: liquid assays; cited from earlier work
[5] = Model parameters for naphthalene (diffusion, equilibrium constant); assay type: physicochemical
Text: Biot numbers were on the order of 100. Effectiveness factor calculations using the best-fit first-order reaction rate constant indicate that the beads were limited by the reaction rate and not by internal mass transfer resistance. The good fit obtained using the analytical solution, wherein external and internal mass transfer was assumed negligible, also support the conclusion that mass transfer effects were minimal. The model predicts that the salicylate distribution reaches a steady state within an alginate bead (99% of final) in about 7 minutes. Even assuming that the diffusion coefficient was reduced by an order of magnitude in the alginate matrix, a steady state was reached within 15 min. […] Cell volume estimated at less than 1% probably had little effect on diffusion. The model also predicted that liquid mass transfer resistance would have little effect on reaching steady state. […] A positive 50% error in the measured adsorption coefficient would result in doubling the time required to reach steady state. […] Model parameters have been measured (liquid mass transfer coefficient, pellet void volume, and adsorption coefficients), reported, and estimated. Respective coefficients for naphthalene were […], 9.0×10^−8 cm^2 s^−1 and 8.4 cm^2 s mol^−1 for liquid diffusion, solid diffusion, and Langmuir equilibrium constants. Companion free cell studies are needed to further aid evaluation of free and immobilized kinetics and response.

Cc1ccccc1 [Toluene, toluene]
maximum light response (P. putida B2 [1]; 10 mg/L toluene square-wave feed, 20 mg/L TCE): 43.4±6.8 namp | rate of light response decrease (P. putida B2 [1]; after the toluene feed was stopped): 3.4±0.8 namp/hr | rate of light emission increase (P. putida B2 [1]; during toluene feed cycle, 10 mg/L toluene, 20 mg/L TCE): 16.3±1.2 namp/hr | effluent toluene concentration (P. putida B2 [1]; inlet toluene 10 mg/L): 5.8 ± 0.1 mg/L | toluene removal (P. putida B2 [1]; inlet toluene 10 mg/L): 50% | ratio toluene degraded to TCE degraded (P. putida B2 [1]; steady state in DVR): 1.7 μmol toluene degraded/μmol TCE degraded | light response (in words) (P. putida TVA8; approximately 50 mg/L (JP-4 approx. 2%), 2 h): significant light response | bioluminescence relative to background bioluminescence level (P. putida TVA8; at 50 μg toluene/L): 80 fold | Specific Bioluminescence (P. putida TVA8; exposure 2 hours, approximately 50 mg/L, normalized to final OD546, average ± SD of three replicates): 291 ± 6 namp/OD | Specific Bioluminescence (P. putida TVA8; toluene 50 mg/L, 2 h exposure): 290 namp/OD546 | maximum bioluminescent response (P. putida B2 [2]; same for single and multiple exposures): 573±127 namp | Bioluminescent response rate, Multiple Exposure Vial (P. putida B2 [2]; time point 1): 95 NAMP/HR | Bioluminescent response rate, Single Exposure Vials (P. putida B2 [2]; time point 2): 137 NAMP/HR | Bioluminescent response rate, Multiple Exposure Vial (P. putida B2 [2]; time point 2): 321 NAMP/HR | Bioluminescent response rate, Single Exposure Vials (P. putida B2 [2]; time point 3): 67 NAMP/HR | Bioluminescent response rate, Multiple Exposure Vial (P. putida B2 [2]; time point 3): 642 NAMP/HR | Bioluminescent response rate, Single Exposure Vials (P. putida B2 [2]; time point 4): 60 NAMP/HR | Bioluminescent response rate, Multiple Exposure Vial (P. putida B2 [2]; time point 4): 768 NAMP/HR | Bioluminescent response rate, Single Exposure Vials (P. putida B2 [2]; time point 5): 60 NAMP/HR | Bioluminescent response rate, Multiple Exposure Vial (P. putida B2 [2]; time point 5): 737 NAMP/HR | Bioluminescent response rate, Single Exposure Vials (P. putida B2 [2]; time point 6): 49 NAMP/HR | Bioluminescent response rate, Multiple Exposure Vial (P. putida B2 [2]; time point 6): 973 NAMP/HR | bioluminescent response (in words) (P. putida B2 [3]; 0 and 0.01 mg/l toluene): not a significant bioluminescent response | bioluminescent response (P. putida B2 [3]; 0.1 mg/l toluene): 2.4 namp | bioluminescent response (P. putida B2 [3]; 10, 20 and 50 mg/l toluene): approximately 90 namp

c1ccc2ccccc2c1 [naphthalene]
Bioluminescence ± σ (P. fluorescens HK44; experiment 5b, biomass […] 10^9 cells/mL, sodium salicylate 2.5 mg/L plus naphthalene 8.0, τ 15 min): 4.79 ± 3.18 × 10^−1 nA | steady-state light response to naphthalene relative to response to salicylate (P. fluorescens HK44; identical conditions, alginate-immobilized HK44): approximately two orders of magnitudes greater | adsorption on calcium alginate (in words) [4]: adsorbed linearly | adsorption isotherm on calcium alginate, dimensionless ratio ([4]; linear isotherm): 8.4 | linear luminescence response, lower concentration (HK44 cells): 0.72 µg/L | linear luminescence response, upper concentration (HK44 cells): 3.25 mg/L | Langmuir equilibrium constant [5]: 8.4 cm^2 s mol^−1 | liquid diffusion coefficient [5]: 9.0×10^6 cm^2 s^−1 | solid diffusion coefficient [5]: 9.0×10^−8 cm^2 s^−1
